# Legend:
# CAI = CAI (Homo sapiens, UniProt P00915); assay: fluorescent thermal shift assay (FTSA), CAI; type: binding; details: 37 °C; for ΔGintr CAI: converted from Kd_intr, independent of pH; for ΔGobs CAI: converted from Kd_obs, pH 7.0, FTSA
# CAII = CAII (Homo sapiens, UniProt P00918); assay: fluorescent thermal shift assay (FTSA), CAII; type: binding; details: 37 °C; for ΔGintr CAII: converted from Kd_intr, independent of pH; for ΔGobs CAII: converted from Kd_obs, pH 7.0, FTSA
# CAIV = CAIV (Homo sapiens, UniProt P22748); assay: fluorescent thermal shift assay (FTSA), CAIV; type: binding; details: 37 °C; for ΔGintr CAIV: converted from Kd_intr, independent of pH; for ΔGobs CAIV: converted from Kd_obs, pH 7.0, FTSA
# Chain of CAIV (P22748 19-312): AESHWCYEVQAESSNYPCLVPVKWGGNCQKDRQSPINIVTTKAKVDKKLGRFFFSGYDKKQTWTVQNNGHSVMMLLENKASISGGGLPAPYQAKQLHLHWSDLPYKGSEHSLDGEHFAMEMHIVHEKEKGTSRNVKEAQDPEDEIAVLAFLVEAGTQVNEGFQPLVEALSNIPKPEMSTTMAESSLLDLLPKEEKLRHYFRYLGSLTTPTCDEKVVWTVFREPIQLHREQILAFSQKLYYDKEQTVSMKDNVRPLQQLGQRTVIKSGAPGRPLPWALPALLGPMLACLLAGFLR
# CAVB = CAVB (Homo sapiens, UniProt Q9Y2D0); assay: fluorescent thermal shift assay (FTSA), CAVB; type: binding; details: 37 °C; for ΔGintr CAVB: converted from Kd_intr, independent of pH; for ΔGobs CAVB: converted from Kd_obs, pH 7.0, FTSA
# Chain of CAVB (Q9Y2D0 34-317): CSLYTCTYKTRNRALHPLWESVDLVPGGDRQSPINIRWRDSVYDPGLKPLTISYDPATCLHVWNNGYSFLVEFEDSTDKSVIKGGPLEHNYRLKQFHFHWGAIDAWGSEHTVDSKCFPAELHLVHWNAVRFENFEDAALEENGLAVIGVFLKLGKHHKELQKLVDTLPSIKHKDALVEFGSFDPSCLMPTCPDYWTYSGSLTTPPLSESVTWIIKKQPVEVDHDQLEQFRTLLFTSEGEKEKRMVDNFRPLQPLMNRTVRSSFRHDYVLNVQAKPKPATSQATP
# CAVI = CAVI (Homo sapiens, UniProt P23280); assay: fluorescent thermal shift assay (FTSA), CAVI; type: binding; details: 37 °C; for ΔGintr CAVI: converted from Kd_intr, independent of pH; for ΔGobs CAVI: converted from Kd_obs, pH 7.0, FTSA
# Chain of CAVI (P23280 18-308): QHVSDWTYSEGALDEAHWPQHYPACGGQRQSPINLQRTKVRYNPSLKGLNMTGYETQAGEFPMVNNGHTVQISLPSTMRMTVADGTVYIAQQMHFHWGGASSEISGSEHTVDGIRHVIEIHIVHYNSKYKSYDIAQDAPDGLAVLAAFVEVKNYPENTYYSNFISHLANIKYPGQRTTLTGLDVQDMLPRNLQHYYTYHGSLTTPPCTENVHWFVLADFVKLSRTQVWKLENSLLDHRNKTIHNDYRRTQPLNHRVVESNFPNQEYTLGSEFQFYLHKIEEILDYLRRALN
# CAVII = CAVII (Homo sapiens, UniProt P43166); assay: fluorescent thermal shift assay (FTSA), CAVII; type: binding; details: 37 °C; for ΔGintr CAVII: converted from Kd_intr, independent of pH; for ΔGobs CAVII: converted from Kd_obs, pH 7.0, FTSA
# Chain of CAVII (P43166 whole entry): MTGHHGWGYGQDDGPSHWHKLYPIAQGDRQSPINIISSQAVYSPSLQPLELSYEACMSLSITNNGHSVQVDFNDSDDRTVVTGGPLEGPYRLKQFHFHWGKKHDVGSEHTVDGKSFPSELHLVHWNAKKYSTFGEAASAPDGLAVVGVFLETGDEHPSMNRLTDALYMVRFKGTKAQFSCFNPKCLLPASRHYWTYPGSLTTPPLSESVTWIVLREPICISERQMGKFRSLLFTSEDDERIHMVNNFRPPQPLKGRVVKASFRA
# CAIX = CAIX (Homo sapiens, UniProt Q16790); assay: fluorescent thermal shift assay (FTSA), CAIX; type: binding; details: for ΔGobs CAIX: pH 7
# CAXII = CAXII (Homo sapiens, UniProt O43570); assay: fluorescent thermal shift assay (FTSA), CAXII; type: binding; details: 37 °C; for ΔGintr CAXII: converted from Kd_intr, independent of pH; for ΔGobs CAXII: converted from Kd_obs, pH 7.0, FTSA
# Chain of CAXII (O43570 25-354): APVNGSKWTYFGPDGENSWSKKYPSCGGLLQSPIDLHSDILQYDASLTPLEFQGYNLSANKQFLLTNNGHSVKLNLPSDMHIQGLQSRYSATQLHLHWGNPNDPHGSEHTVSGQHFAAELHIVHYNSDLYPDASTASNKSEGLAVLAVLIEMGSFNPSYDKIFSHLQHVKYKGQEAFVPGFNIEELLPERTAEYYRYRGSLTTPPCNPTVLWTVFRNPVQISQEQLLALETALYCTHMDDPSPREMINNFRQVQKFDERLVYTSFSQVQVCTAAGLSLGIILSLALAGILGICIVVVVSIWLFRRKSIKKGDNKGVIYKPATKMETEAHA
# CAXIII = CAXIII (Homo sapiens, UniProt Q8N1Q1); assay: fluorescent thermal shift assay (FTSA), CAXIII; type: binding; details: 37 °C; for ΔGintr CAXIII: converted from Kd_intr, independent of pH; for ΔGobs CAXIII: converted from Kd_obs, pH 7.0, FTSA
# Chain of CAXIII (Q8N1Q1 whole entry): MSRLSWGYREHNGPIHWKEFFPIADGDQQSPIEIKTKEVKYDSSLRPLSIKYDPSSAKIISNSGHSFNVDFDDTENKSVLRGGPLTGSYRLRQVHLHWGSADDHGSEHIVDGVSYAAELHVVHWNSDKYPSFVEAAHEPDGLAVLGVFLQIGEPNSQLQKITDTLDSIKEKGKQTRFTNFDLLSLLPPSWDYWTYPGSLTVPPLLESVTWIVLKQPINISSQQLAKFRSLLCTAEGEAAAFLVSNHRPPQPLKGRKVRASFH
# CAXIV = CAXIV (Homo sapiens, UniProt Q9ULX7); assay: fluorescent thermal shift assay (FTSA), CAXIV; type: binding; details: 37 °C; for ΔGintr CAXIV: converted from Kd_intr, independent of pH; for ΔGobs CAXIV: converted from Kd_obs, pH 7.0, FTSA
# Chain of CAXIV (Q9ULX7 16-337): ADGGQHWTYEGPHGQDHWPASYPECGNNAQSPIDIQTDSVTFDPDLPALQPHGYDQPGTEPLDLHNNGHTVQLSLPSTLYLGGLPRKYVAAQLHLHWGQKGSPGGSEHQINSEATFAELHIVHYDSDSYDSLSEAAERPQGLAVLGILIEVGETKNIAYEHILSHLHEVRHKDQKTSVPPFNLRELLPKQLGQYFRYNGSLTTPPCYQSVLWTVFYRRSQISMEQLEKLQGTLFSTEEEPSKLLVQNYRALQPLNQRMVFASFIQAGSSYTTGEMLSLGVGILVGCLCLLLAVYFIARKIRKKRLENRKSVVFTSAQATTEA
# [1] = determination of pKa of the sulfonamide group by UV-VIS spectra at various pH; type: physicochemical; details: for f RSO2NH-, fraction of deprotonated sulfonamide: at pH 7.0, calculated from pKa; for pKa: calculated from spectra at various pH, 37 °C
# CAIII = CAIII (Homo sapiens, UniProt P07451); assay: fluorescent thermal shift assay (FTSA), CAIII; type: binding; details: 37 °C; for ΔGintr CAIII: converted from Kd_intr, independent of pH; for ΔGobs CAIII: converted from Kd_obs, pH 7.0, FTSA
# Chain of CAIII (P07451 whole entry): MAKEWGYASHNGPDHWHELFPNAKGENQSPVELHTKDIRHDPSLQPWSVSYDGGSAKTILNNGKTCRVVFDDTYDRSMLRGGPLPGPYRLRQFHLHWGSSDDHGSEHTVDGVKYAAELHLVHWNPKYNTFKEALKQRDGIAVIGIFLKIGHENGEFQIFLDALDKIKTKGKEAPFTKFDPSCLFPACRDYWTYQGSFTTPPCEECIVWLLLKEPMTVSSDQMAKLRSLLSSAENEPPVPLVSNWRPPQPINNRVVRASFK
# CAVA = CAVA (Homo sapiens, UniProt P35218); assay: fluorescent thermal shift assay (FTSA), CAVA; type: binding; details: 37 °C; for ΔGintr CAVA: converted from Kd_intr, independent of pH; for ΔGobs CAVA: converted from Kd_obs, pH 7.0, FTSA
# Chain of CAVA (P35218 39-305): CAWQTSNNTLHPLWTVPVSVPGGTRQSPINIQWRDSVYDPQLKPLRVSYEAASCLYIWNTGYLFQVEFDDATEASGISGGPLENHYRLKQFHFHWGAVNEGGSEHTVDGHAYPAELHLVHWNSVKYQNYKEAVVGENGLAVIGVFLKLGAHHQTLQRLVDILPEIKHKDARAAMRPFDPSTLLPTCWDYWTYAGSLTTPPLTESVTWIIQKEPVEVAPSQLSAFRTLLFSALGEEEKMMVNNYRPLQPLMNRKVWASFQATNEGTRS
# [2] = solubility observed visually and in absorption spectra; type: physicochemical; design: key: low solubility, LS
# Chain of CAI (P00915 whole entry): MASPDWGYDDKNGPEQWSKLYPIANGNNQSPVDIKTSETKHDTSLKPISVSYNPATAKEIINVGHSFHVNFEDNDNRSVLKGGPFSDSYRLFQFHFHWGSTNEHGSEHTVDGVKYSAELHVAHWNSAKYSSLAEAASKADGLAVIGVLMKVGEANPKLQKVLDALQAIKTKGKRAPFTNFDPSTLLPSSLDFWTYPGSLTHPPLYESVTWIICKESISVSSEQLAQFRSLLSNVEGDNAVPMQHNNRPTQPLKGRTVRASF
SMILES,ΔGintr CAI (CAI) [kcal/mol],ΔGobs CAI (CAI) [kcal/mol],ΔGintr CAII (CAII) [kcal/mol],ΔGobs CAII (CAII) [kcal/mol],ΔGintr CAIV (CAIV) [kcal/mol],ΔGobs CAIV (CAIV) [kcal/mol],ΔGintr CAVB (CAVB) [kcal/mol],ΔGobs CAVB (CAVB) [kcal/mol],ΔGintr CAVI (CAVI) [kcal/mol],ΔGobs CAVI (CAVI) [kcal/mol],ΔGobs CAVII (CAVII) [kcal/mol],ΔGobs CAIX (CAIX) [kcal/mol],ΔGintr CAXII (CAXII) [kcal/mol],ΔGobs CAXII (CAXII) [kcal/mol],ΔGobs CAXIII (CAXIII) [kcal/mol],ΔGintr CAXIV (CAXIV) [kcal/mol],ΔGobs CAXIV (CAXIV) [kcal/mol],"f RSO2NH-, fraction of deprotonated sulfonamide [1] [%]",pKa [1],ΔGintr CAIII (CAIII) [kcal/mol],further results
"COC(=O)c1cc(S(N)(=O)=O)c(Cl)cc1S(=O)(=O)c1cccc2ccccc12 [Compound 9f, Methyl 4-chloro-2-(1-naphthylsulfonyl)-5-sulfamoylbenzoate]",-11.8,-9.7,-15.2,-12.6,-13.1,-10.3,-14.5,-12,-13.4,-9.94,-13,-11.4,-13,-10.4,-12.6,-14.5,-11.9,3.8,8.4,–,ΔGintr CAVII (CAVII): -15.6 kcal/mol; ΔGintr CAXIII (CAXIII): -14.7 kcal/mol
"COC(=O)c1cc(S(N)(=O)=O)c(S(=O)(=O)C2CCCCC2)cc1Br [Compound 8b, Methyl 2-bromo-4-cyclohexylsulfonyl-5-sulfamoylbenzoate]",≥ -9.42,≥ -5.26,≥ -9.87,≥ -5.26,-11,-6.17,≥ -9.8,≥ -5.26,≥ -10.9,≥ -5.26,≥ -5.26,-7.34,≥ -9.94,≥ -5.26,-5.88,≥ -9.94,≥ -5.26,0.1,9.9,≥ -10.3,ΔGobs CAIII (CAIII): ≥ -5.26 kcal/mol; ΔGintr CAVA (CAVA): ≥ -9.61 kcal/mol; ΔGobs CAVA (CAVA): ≥ -5.26 kcal/mol; ΔGintr CAVII (CAVII): ≥ -9.94 kcal/mol; ΔGintr CAIX (CAIX): -51.2; ΔGintr CAXIII (CAXIII): -10.1 kcal/mol
"COC(=O)c1cc(S(N)(=O)=O)c(Cl)cc1Sc1cccc2ccccc12 [Compound 5f, Methyl 4-chloro-2-(1-naphthylsulfanyl)-5-sulfamoyl-benzoate]",-9.94,-6.5,-13.8,-9.87,-10.1,-5.93,-12.8,-8.91,-11.8,-6.88,-8.46,-10.9,–,–,-10.3,-9.94,-5.95,0.4,–,≥ -9.54,ΔGobs CAIII (CAIII): ≥ -5.26 kcal/mol; ΔGintr CAVA (CAVA): -9.37 kcal/mol; ΔGobs CAVA (CAVA): -5.71 kcal/mol; ΔGintr CAIX (CAIX): -15.1 kcal/mol; ΔGintr CAXIII (CAXIII): -13.7 kcal/mol; solubility [2]: LS
"COC(=O)c1cc(S(N)(=O)=O)c(S(=O)(=O)C2CCCCC2)cc1Cl [Compound 7b, Methyl 2-chloro-4-cyclohexylsulfonyl-5-sulfamoylbenzoate]",-9.7,-5.66,-10.6,-6.09,–,–,-10.1,-5.66,-10.7,-5.28,≥ -5.26,-7.15,-10.5,-5.93,-5.9,-10.5,-5.9,0.2,9.8,-10.5,ΔGobs CAIII (CAIII): -5.66 kcal/mol; ΔGintr CAVA (CAVA): -9.89 kcal/mol; ΔGobs CAVA (CAVA): -5.66 kcal/mol; ΔGintr CAVII (CAVII): ≥ -9.8 kcal/mol; ΔGintr CAIX (CAIX): -11.9 kcal/mol
"COC(=O)c1cc(S(N)(=O)=O)c(Cl)cc1S(=O)(=O)Cc1ccccc1 [Compound 9c, Methyl 2-benzylsulfonyl-4-chloro-5-sulfamoylbenzoate]",-10.7,-8.87,-14,-11.8,-12.5,-9.94,-14.9,-12.7,-14.3,-11.1,-12.2,-12.2,-13.2,-10.9,-11.8,-14.5,-12.2,5.9,8.2,-11.6,ΔGobs CAIII (CAIII): -9.01 kcal/mol; ΔGintr CAXIII (CAXIII): -13.6 kcal/mol
"COC(=O)c1cc(S(N)(=O)=O)c(Cl)cc1Cl [Compound 1, Methyl 2,4-dichloro-5-sulfamoyl-benzoate]",-9.63,-6.88,-13.3,-10.1,-13,-9.56,-12.4,-9.23,-13.8,-9.61,-10.2,-10.3,-12.2,-8.87,-10,-13.4,-10.1,1.2,8.9,-9.68,ΔGobs CAIII (CAIII): -6.09 kcal/mol; ΔGintr CAVA (CAVA): -10.3 kcal/mol; ΔGobs CAVA (CAVA): -7.34 kcal/mol; ΔGintr CAVII (CAVII): -13.5 kcal/mol; ΔGintr CAIX (CAIX): -13.7 kcal/mol
